What was measured:
D. piger [1] = experiment: In vitro cross feeding between B. thetaiotaomicron and D. piger (growth in conditioned medium, OD600); type: cell-based, D. piger GOR1; settings: for D. piger growth in medium conditioned by wild-type B. thetaiotaomicron grown on the named carbon substrate: 0.5% carbon substrate in minimal medium, filter-sterilized, lactate 30 mM added, no added sulfate
Protocol: A B. thetaiotaomicron strain Δbt0238 that lacks detectable sulfatase activity, and the isogenic wild-type strain were grown in separate cultures containing minimal medium with either a sulfated or non-sulfated carbon substrate (chondroitin sulfate and fructose, respectively).
Exponential phase cultures of B. thetaiotaomicron Δbt0238 and the isogenic wild-type parental strain (Benjdia et al., 2011; kindly provided by Eric Martens, University of Michigan and Olivier Berteau, INRA), grown in Mega Medium 2.0, were inoculated under anaerobic conditions (atmosphere of 5% H2, 20% CO2 and 75% N2) into Balch tubes containing minimal medium supplemented with either 0.5% (w/v) chondroitin sulfate purified from shark cartilage (Sigma) or 0.5% fructose (Sigma) (n=6 tubes/carbon substrate/strain). […] Cultures representing the same strain and carbon substrate were combined and bacteria were pelleted by centrifugation at 3,200×g at 4° C. for ˜20 min. The supernatant was removed and sterilized by passage through a 0.22 μm filter (Fisher). […] The pH of the conditioned medium was adjusted to ˜7.0 using potassium phosphate buffer (pH 7.2). One half of each conditioned medium preparation was used to fill anaerobic Balch tubes (in triplicate) while sulfate (14 mM Na2SO4 and 4.1 mM MgSO4) was added to the remaining conditioned medium prior to filling the tubes (in triplicate).

D. piger [2] = experiment: COPRO-Seq relative abundance of D. piger in fecal microbiota of gnotobiotic mice fed sulfur-supplemented HF/HS diets; type: in vivo
From the text: Six groups, each composed of two co-housed mice colonized with the 9-member model human gut microbiota were fed one of 13 diets, all based on the HF/HS diet (0.12% w/w SO4; see Table S2 of Rey et al. PNAS 110: 13582-13587 for diet composition). Each group of mice were started on the HF/HS diet and then given a sequence of four diets with differing sulfur content, each for a 7-day period. The sequence of presentation of the four diets was randomized so that that each diet was eventually fed to two different groups of co-housed animals.
DNA isolated from feces (and cecal contents) was used to prepare libraries for shotgun Illumina sequencing (McNulty et al., 2011). Briefly, 1 μg of DNA from each sample was fragmented by sonication to an average size of ˜500 bp and subjected to enzymatic blunting and adenine tailing. Customized Illumina adapters containing maximally distant 4 bp or 8 bp barcodes were ligated to the A-tailed DNA. Barcoded libraries were then pooled, subjected to gel electrophoresis for size selection (˜200 bp) and the size-selected DNA amplified by PCR using primers and cycling conditions recommended by Illumina. Amplicons were purified (QIAquick PCR Purification Kit, Qiagen) and sequenced using an Illumina GA-IIx or HiSeq2000 instrument, with libraries loaded onto the flow cell at a concentration of 2.0-2.5 pM. […]

chondroitin sulfate
D. piger growth in medium conditioned by wild-type B. thetaiotaomicron grown on the named carbon substrate (D. piger [1]): Growth of D. piger was only observed
ability of D. piger to metabolize the substrate (growth in medium harvested from B. thetaiotaomicron Δbt0238 cultures) (D. piger [1]; chondroitin sulfate-containing minimal medium, lactate added): not able to metabolize
D. piger levels in fecal microbiota relative to the HF/HS diet (D. piger [2]; HF/HS diet supplemented with 3% chondroitin sulfate, 7 days, 9-member community, p<0.05): doubled

O=S(=O)(O)O [sulfate]
D. piger growth in fructose-conditioned medium after addition of exogenous sulfate (D. piger [1]; 14 mM Na2SO4 and 4.1 mM MgSO4 added): allowed growth
relative abundance of D. piger in the 9-member model human microbiota (D. piger [2]; 600-fold change in dietary sulfate (0.001% to 0.6% w/w) in HF/HS-based diets, 7 days each): did not affect

CC(O)C(=O)O (stereo not shown) [lactate]
growth of D. piger with lactate as sole carbon and electron source (D. piger [1]; in the absence of sulfate, data not shown): does not support growth

O=C(CO)[C@@H](O)[C@H](O)[C@H](O)CO [fructose]
D. piger growth in medium conditioned by wild-type B. thetaiotaomicron grown on the named carbon substrate (D. piger [1]): lack of growth
